The test relates to P388 leukemia ip, CD2F1 mice, survival T/C. The test is described as follows: NCI In Vivo Anticancer Drug Screen. Data for tumor model P388 Leukemia (intraperitoneal) in CD2F1 (CDF1) mice. To be noted: endpoint: median survival time, higher = longer survival. The method, boiled down: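 Mice carrying the transplanted tumor received test compound or vehicle. Survival was recorded in each group, and the value is the treated-group measurement divided by that of the vehicle-treated control group.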

Where [1] appears, read: dose: 12.5 mg/kg/injection, schedule: Q01DX009 (ip), vehicle: saline with Tween-80.
Where [2] appears, read: dose: 25.0 mg/kg/injection, schedule: Q01DX009 (ip), vehicle: saline with Tween-80.
Setting [3] is: dose: 50.0 mg/kg/injection, schedule: Q01DX009 (ip), vehicle: saline with Tween-80.
Where [4] appears, read: dose: 50.0 mg/kg/injection, schedule: Q01DX005 (ip), vehicle: saline with Tween-80.
[5] abbreviates: dose: 100.0 mg/kg/injection, schedule: Q01DX009 (ip), vehicle: saline with Tween-80.
Setting [6] is: dose: 60.0 mg/kg/injection, schedule: Q01DX005 (ip), vehicle: saline with Tween-80.
Where [7] appears, read: dose: 120.0 mg/kg/injection, schedule: Q01DX005 (ip), vehicle: saline with Tween-80.
The mark [8] stands for this setting: dose: 240.0 mg/kg/injection, schedule: Q01DX005 (ip), vehicle: saline with Tween-80.
[9] abbreviates: dose: 200.0 mg/kg/injection, schedule: Q01DX009 (ip), vehicle: saline with Tween-80.
The mark [10] stands for this setting: dose: 50.0 mg/kg/injection, schedule: Q01DX009 (ip), vehicle: Klucel (hydroxypropylcellulose) (HPC).
Setting [11] is: dose: 100.0 mg/kg/injection, schedule: Q01DX009 (ip), vehicle: Klucel (hydroxypropylcellulose) (HPC).
Where [12] appears, read: dose: 200.0 mg/kg/injection, schedule: Q01DX009 (ip), vehicle: Klucel (hydroxypropylcellulose) (HPC).

Several values for one entry are separate records, joined by “and”; a condition that tells them apart may be missing. Equal entries are not always repeated. Inconclusive results and toxic doses are left out.

Among the data in PubChem BioAssay AID330 (DTP/NCI, 2004) are T/C values, retold here.

As for `CC(=O)Nc1c(Cl)c(Cl)c2c(c1Cl)Cc1cc(Cl)c(Cl)cc1-2`, the T/C by setting is: under setting [1], 100 % of control; under setting [2], 100 % of control; under setting [3], 95 % of control; (dose: 100.0 mg/kg/injection, schedule: Q04DX003 (ip), vehicle: saline with Tween-80) 109 % of control; (dose: 200.0 mg/kg/injection, schedule: Q04DX003 (ip), vehicle: saline with Tween-80) 100 % of control; (dose: 400.0 mg/kg/injection, schedule: Q04DX003 (ip), vehicle: saline with Tween-80) 104 % of control.
On to `CC(=O)Nc1ccc(C(=O)CN(Cc2ccccc2)Cc2ccccc2)cc1`, for which the T/C (dose: 50.0 mg/kg/injection, schedule: Q01DX005 (ip), vehicle: Klucel (hydroxypropylcellulose) (HPC)) is 87 % of control and the T/C (dose: 100.0 mg/kg/injection, schedule: Q01DX005 (ip), vehicle: Klucel (hydroxypropylcellulose) (HPC)) is 87 % of control.
With `C=CCc1ccc(Oc2cc(CC=C)cc(O)c2O)cc1`, the T/C reads like this: (dose: 25.0 mg/kg/injection, schedule: Q01DX005 (ip), vehicle: Klucel + Tween-80) 101 % of control; (dose: 50.0 mg/kg/injection, schedule: Q01DX005 (ip), vehicle: Klucel + Tween-80) 104 % of control; (dose: 100.0 mg/kg/injection, schedule: Q01DX005 (ip), vehicle: Klucel + Tween-80) 106 % of control; (dose: 200.0 mg/kg/injection, schedule: Q01DX005 (ip), vehicle: Klucel + Tween-80) 113 % of control.
`COc1cc(C)c(O)c(C/C=C(\C)CC2=C[C@@]3(C)CCC[C@@]3(C)[C@]3(C=CC(C)(C)O3)O2)c1`: the T/C (dose: 10.0 mg/kg/injection, schedule: Q01DX005 (ip), vehicle: saline with Tween-80) was 94 % of control; the T/C (dose: 20.0 mg/kg/injection, schedule: Q01DX005 (ip), vehicle: saline with Tween-80) is 99 % of control; the T/C (dose: 40.0 mg/kg/injection, schedule: Q01DX005 (ip), vehicle: saline with Tween-80) was 99 % of control.
As for `O=C(NC1=C(N2CC2)C(=O)C(NC(=O)OCCO)=C(N2CC2)C1=O)OCCO`, the T/C is 174 % of control (dose: 0.18 mg/kg/injection, schedule: Q01DX009 (ip), vehicle: saline); 170 % of control (dose: 0.39 mg/kg/injection, schedule: Q01DX009 (ip), vehicle: saline); 218 % of control (dose: 0.75 mg/kg/injection, schedule: Q01DX009 (ip), vehicle: saline); 169 % of control and 175 % of control (dose: 1.5 mg/kg/injection, schedule: Q01DX009 (ip), vehicle: saline); 202 % of control and 211 % of control (dose: 3.0 mg/kg/injection, schedule: Q01DX009 (ip), vehicle: saline); 239 % of control and 258 % of control (dose: 6.0 mg/kg/injection, schedule: Q01DX009 (ip), vehicle: saline).
In the case of `CC[N+](C)(C)c1ccc(C(=C2C=CC(=[N+](C)C)C=C2)c2ccc(N(C)C)cc2)cc1`, the T/C (dose: 3.12 mg/kg/injection, schedule: Q01DX005 (ip), vehicle: saline) is 100 % of control; the T/C (dose: 6.25 mg/kg/injection, schedule: Q01DX005 (ip), vehicle: saline) is 100 % of control; the T/C (dose: 12.5 mg/kg/injection, schedule: Q01DX005 (ip), vehicle: saline) is 104 % of control.
Take `O=C(NN(Cn1c(=S)sc2ccccc21)Cn1c(=S)sc2ccccc21)c1cccc([N+](=O)[O-])c1`: the T/C (dose: 100.0 mg/kg/injection, schedule: Q01DX001 (ip), vehicle: Klucel (hydroxypropylcellulose) (HPC)) was 93 % of control; the T/C (dose: 200.0 mg/kg/injection, schedule: Q01DX001 (ip), vehicle: Klucel (hydroxypropylcellulose) (HPC)) is 92 % of control; the T/C (dose: 400.0 mg/kg/injection, schedule: Q01DX001 (ip), vehicle: Klucel (hydroxypropylcellulose) (HPC)) is 113 % of control.
As to `CC(C1SC(=S)NC1=O)C1SC(=S)NC1=O` (stereo unspecified), the T/C was 86 % of control under setting [4]; 87 % of control (dose: 100.0 mg/kg/injection, schedule: Q01DX005 (ip), vehicle: saline with Tween-80); 87 % of control (dose: 200.0 mg/kg/injection, schedule: Q01DX005 (ip), vehicle: saline with Tween-80).
On to `Cc1ccc(S(=O)(=O)N(CCC(c2ccccc2)c2ccccc2)S(=O)(=O)c2ccc(C)cc2)cc1`, for which the T/C under setting [2] was 102 % of control, the T/C under setting [3] is 98 % of control and the T/C under setting [5] was 100 % of control.
For the compound `CCC(/C=C/c1ccccc1)=N\Nc1ccc(Cl)cc1`, the T/C reads like this: under setting [6], 104 % of control; under setting [7], 101 % of control; under setting [8], 98 % of control.
Turning to `NC(CCl)=NCc1ccccc1`, the T/C (dose: 7.5 mg/kg/injection, schedule: Q01DX005 (ip), vehicle: saline) is 99 % of control; the T/C (dose: 15.0 mg/kg/injection, schedule: Q01DX005 (ip), vehicle: saline) was 96 % of control; the T/C (dose: 30.0 mg/kg/injection, schedule: Q01DX005 (ip), vehicle: saline) is 111 % of control.
For the compound `COc1cc(C2(C3C(CO)OC(=O)C3Cc3ccc4c(c3)OCO4)SCCCS2)cc(OC)c1OC` (stereo unspecified), the T/C (dose: 25.0 mg/kg/injection, schedule: Q04DX002 (ip), vehicle: saline with Tween-80) is 100 % of control and the T/C (dose: 50.0 mg/kg/injection, schedule: Q04DX002 (ip), vehicle: saline with Tween-80) is 87 % of control.
On to `O=C(Nc1cccnc1)c1ccccc1`, for which the T/C (dose: 6.25 mg/kg/injection, schedule: Q01DX009 (ip), vehicle: saline with Tween-80) was 100 % of control; the T/C under setting [1] was 100 % of control; the T/C under setting [2] is 100 % of control.
As to `O=S(=O)(CCCCl)SCCCCl`, the T/C runs as follows: (dose: 7.5 mg/kg/injection, schedule: Q01DX005 (ip), vehicle: saline with Tween-80) 104 % of control; (dose: 15.0 mg/kg/injection, schedule: Q01DX005 (ip), vehicle: saline with Tween-80) 105 % of control; (dose: 30.0 mg/kg/injection, schedule: Q01DX005 (ip), vehicle: saline with Tween-80) 103 % of control and 105 % of control; under setting [6], 96 % of control.
For `CCCn1c(O)c(C=N)c(=O)[nH]c1=O`, the T/C runs as follows: under setting [5], 87 % of control; under setting [9], 95 % of control.
Consider `c1cc2ccc3ccc[n+]4c3c2[n+](c1)CC4`, for which the T/C (dose: 50.0 mg/kg/injection, schedule: Q01DX009 (ip), vehicle: saline) is 103 % of control.
As to `COc1ccc(CCN2C(=O)C(=O)N(C(C)C)C2=O)cc1OC`, the T/C was 86 % of control under setting [10], 91 % of control under setting [11] and 95 % of control under setting [12].
Take `CC1CCCC(C)N1Cc1ccccc1` (stereo unspecified): the T/C (dose: 25.0 mg/kg/injection, schedule: Q01DX005 (ip), vehicle: saline with Tween-80) is 93 % of control and the T/C under setting [4] was 93 % of control.
As for `CN(C(=S=O)c1ccc(Cl)cc1)c1ccccc1`, the T/C is, setting by setting: (dose: 25.0 mg/kg/injection, schedule: Q01DX009 (ip), vehicle: suspension in saline) 101 % of control; (dose: 50.0 mg/kg/injection, schedule: Q01DX009 (ip), vehicle: suspension in saline) 95 % of control; (dose: 100.0 mg/kg/injection, schedule: Q01DX009 (ip), vehicle: saline) 90 % of control; (dose: 100.0 mg/kg/injection, schedule: Q01DX009 (ip), vehicle: suspension in saline) 105 % of control and 97 % of control; (dose: 200.0 mg/kg/injection, schedule: Q01DX009 (ip), vehicle: saline) 94 % of control.
Turning to `CC(C)c1ccccc1S(=O)c1ccccc1C(C)(C)O` (stereo unspecified), the T/C under setting [10] is 98 % of control, the T/C under setting [11] is 102 % of control and the T/C under setting [12] was 95 % of control.
For `CCOc1cc2c(cc1Cc1ccc(OC)cc1)OCO2`, the T/C is, setting by setting: (dose: 50.0 mg/kg/injection, schedule: Q01DX005 (ip), vehicle: distilled water + alcohol) 108 % of control; (dose: 100.0 mg/kg/injection, schedule: Q01DX005 (ip), vehicle: distilled water + alcohol) 95 % of control; (dose: 200.0 mg/kg/injection, schedule: Q01DX005 (ip), vehicle: distilled water + alcohol) 109 % of control.
Regarding `CC(C)(Br)C(=O)/C=C/c1ccc(Cl)c(Cl)c1`, the T/C under setting [6] is 111 % of control, the T/C under setting [7] was 118 % of control and the T/C under setting [8] was 108 % of control.
With `Brc1ccc(-c2cc(-c3cccs3)cc(-c3ccccc3)n2)cc1`, the T/C runs as follows: under setting [10], 100 % of control; under setting [11], 108 % of control; under setting [12], 101 % of control.
For the compound `Cc1c([N+](=O)[O-])c(=O)[nH]n1C`, the T/C is, setting by setting: under setting [3], 96 % of control; under setting [5], 88 % of control; under setting [9], 89 % of control.
